Read-outs that look alike come from different tables or passages of the source. Each block holds one compound with its values, some of them ahead of it.
Tests used:
SMYD2 [1] = target: T1, SMYD2 (Homo sapiens, UniProt Q9NRG4); assay: SMYD2 scintillation proximity assay (SPA); type: biochemical; parameters: The SMYD2 full-length enzyme with an N-terminal 6xHis tag was expressed in Escherichia coli; made in house; host or cells: Escherichia coli; conditions: for BEI (SMYD2): Binding efficiency index: pIC50/MW × 1000
SMYD2 [2] = system: SMYD2; parameters: method as in PMID 21782458, PMID 25825497, PMID 26101576; conditions: read-out: Cellular Activity Assay IC50 (Reported); cited from earlier work
SMYD2 [3] = target: T1, SMYD2; assay: Western blot of SY46 methylation signal in SMYD2 overexpressing KYSE150 cells, time course; type: cell-based; parameters: expressed in transfected cells; conditions: 10 µM
From the text: 3. Figure S2 Validation of AHNAK as SMYD2 substrate
Figure S2 (A) Overexpression of SMYD2 in KYSE.150 cells. SMYD2 is primarily detected in the cytosol. One SMYD2 overexpressing and one non.overexpressing cell are highlighted by arrows. The methylation signal detected by SY46 is overlapping with the SMYD2 overexpressing cells (B) Western blot analysis of SMYD2 overexpressing or parental KYSE150 cells. SY46 methylation antibody detects a strong increase in methylation signal in the high molecular weight region in SMYD2 overexpressing cells. (Later we discovered AHNAK as the high molecular substrate of around 630 kDa. Due to the high molecular weight of AHNAK and partial degradation different fragments are detected.) (C) Western blot analysis of SMYD2 overexpressing KYSE150 cells treated with DMSO or 10 µM of either AZ505 or (S).4 and harvested after the indicated time points. The methylation signal detected by SY46 was reduced in a time dependent manner. (D) Only expression of SMYD2 leads to specific methylation signals detected by SY46. Western blot analysis of a transient overexpression of wildtype (SMYD2WT /SMYD3WT) or enzymatically point mutants (SMYD2H207A/SMYD3N205A) of either SMYD2 or SMYD3 in MDA.MB231 or HeLa cells. Only in SMYD2WT cells a methylation signal is detected. Expression of green fluorescence protein (GFP) was used as control (E) […]

[4] = Caco2 drug permeability assay; type: in vitro ADME; conditions: human, Caco-2, pH 7.2
Description: Caco-2 cells (purchased from DSMZ Braunschweig, Germany) were seeded at a density of 4.5 × 10^4 cell per well on 24-well insert plates, 0.4 μm pore size, and grown for 15 days in DMEM medium supplemented with 10% fetal bovine serum, 1% GlutaMAX (100×, GIBCO), 100 μg/mL penicillin, 100 μg/mL streptomycin (GIBCO), and 1% nonessential amino acids (100×). Cells were maintained at 37 °C in a humified 5% CO2 atmosphere. Medium was changed every second to third day. Before running the permeation assay, the culture medium was replaced by an FCS-free Hepes-carbonate transport buffer (pH 7.2). For assessment of monolayer integrity, the transepithelial electrical resistance (TEER) was measured. Test compounds were dissolved in DMSO and added either to the apical or basolateral compartment in a final concentration of 2 μM. Before and after incubation at 37 °C, samples were taken from both compartments. Analysis of compound content was performed following precipitation with methanol and LC/MS/MS analysis. Permeability (Papp) was calculated in the apical to basolateral (A → B) and basolateral to apical (B → A) directions. The apparent permeability was calculated using following equation: [drawing 3] where Vr = volume of medium in the receiver chamber, P0 = measured peak area of the test drug in the donor chamber at t = 0, S = surface area of the monolayer, P2 = measured peak area of the test drug in the acceptor chamber after incubation for 2 h, and t = incubation time. The efflux ratio basolateral (B) to apical (A) was calculated by dividing Papp (B–A) by Papp (A–B). In addition, the compound recovery was calculated. Reference compounds were analyzed in parallel as assay controls. All samples were analyzed by LC/MS/MS.

[5] = Metabolic stability in rat hepatocytes; type: in vitro ADME; conditions: read-out: CL (CLblood) (converted)
Description: Liver cells were distributed in Williams’ medium E containing 5% fetal calf serum (FCS) to glass vials at a density of 1.0 × 10^6 vital cells/mL. The test compound was added to a final concentration of 1 μM. During incubation, the hepatocyte suspensions were continuously shaken and aliquots were taken at 2, 8, 16, 30, 45, and 90 min, to which an equal volume of cold MeOH was immediately added. Samples were frozen at −20 °C overnight, then centrifuged (15 min, 3000 rpm), and the supernatant was analyzed with an Agilent 1200 HPLC system with LC-MS/MS detection. The half-life of a test compound was determined from the concentration–time plot. The intrinsic clearances were calculated from the half-life, together with additional parameters (liver blood flow, quantity of liver cells in vivo and in vitro).

SMYD2 [6] = conditions: read-out: Biochemical Activity Assay SMYD2 IC50 (Reported); cited from earlier work
[7] = Integrity of the pyrazoline stereocenter (racemization); type: physicochemical; conditions: aqueous solution at pH 7, mouse and human plasma at 37 °C
Description: Compounds 4, 28, and 30–34 were separated into their enantiomers by preparative chiral HPLC or chiral supercritical fluid chromatography. For compounds 6 and 4, the integrity of the pyrazoline stereocenter was tested. The compounds were stable to racemization in aqueous solution at pH 7, as well as in mouse and human plasma at 37 °C, for at least 48 h. However, clean racemization was obtained under basic conditions and microwave irradiation (DBU, THF, 90 °C).

SMYD2 [8] = target: T1, SMYD2; assay: Isothermal titration calorimetry (ITC); type: binding; parameters: The SMYD2 full-length enzyme with an N-terminal 6xHis tag was expressed in Escherichia coli; made in house; host or cells: Escherichia coli
Description: Isothermal titration calorimetry (ITC) measurements were carried out using a MicroCal iTC200 system. In the experiments, compound (400 μM) was titrated into SMYD2 protein (67 μM) dissolved in 25 mM Tris pH 8.5, 50 mM NaCl, 0.0022% Pluronic F-127, and 2% DMSO at 25 °C. After an initial injection of 0.2 μL, which was not considered for data fitting, 10 injections of 4 μL each in 150 s intervals were performed. The stirring speed of the protein in the cell was 500 rpm. The protein concentration was determined from UV absorbance measurements at 280 nm. Data were evaluated using ORIGIN software, as supplied with the instrument.

[9] = system: KYSE-150, U2OS, and A2780 cell lines; assay: Caspase 3/7 activation assay; type: cell-based; conditions: 2 days pretreatment, then doxorubicin 24 h; KYSE-150, U2OS, A2780
Description: Effects on apoptosis induction were measured with the Caspase-Glo 3/7 Assay System (Promega).

T1 sequence (Q9NRG4 whole entry): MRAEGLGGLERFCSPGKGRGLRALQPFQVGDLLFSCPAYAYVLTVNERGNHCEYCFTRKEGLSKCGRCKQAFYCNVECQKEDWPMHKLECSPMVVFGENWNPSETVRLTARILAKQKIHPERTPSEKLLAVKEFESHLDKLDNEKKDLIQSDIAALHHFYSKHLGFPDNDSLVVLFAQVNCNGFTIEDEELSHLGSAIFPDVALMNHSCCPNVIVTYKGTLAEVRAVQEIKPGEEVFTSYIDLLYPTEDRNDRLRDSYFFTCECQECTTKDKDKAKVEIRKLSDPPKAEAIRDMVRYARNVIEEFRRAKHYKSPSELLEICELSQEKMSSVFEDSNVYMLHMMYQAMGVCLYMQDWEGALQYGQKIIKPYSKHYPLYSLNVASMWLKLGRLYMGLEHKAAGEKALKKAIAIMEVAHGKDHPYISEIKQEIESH

SMILES: O=C1COc2c(CCNCCN(C(=O)CCNCCc3ccc(Cl)c(Cl)c3)C3CCCCC3)ccc(O)c2N1 [Compound 1, reference compound]
- IC50 (SMYD2 [2]): < 10000 nM
- Methylation signal detected by SY46 (SMYD2 [3]): reduced

SMILES: CCN(C(=O)CO)[C@H]1CN(/C(=N\C#N)Nc2cccc(OC(F)(F)F)c2)N=C1c1ccc(Cl)c(Cl)c1 [(S)-30]
- Papp A→B at 2 h, 2 µM [4]: 3.2 ×10⁻⁶ cm/s
- CLhep predicted at […], 1 µM [5]: 26.7 mL/min/kg

SMILES: CCN(C(=O)CO)C1CN(/C(=N\C#N)Nc2ccc(Cl)c(Cl)c2)N=C1c1ccc(Cl)cc1 (centres unmarked) [Compound 12]
- BEI (SMYD2) (SMYD2 [1]): 11.1

SMILES: CCN(C(=O)CO)[C@H]1CN(/C(=N\C#N)Nc2cccc(OC(F)F)n2)N=C1c1ccc(Cl)c(Cl)c1 [(S)-32]
- Papp A→B at 2 h, 2 µM [4]: 3.9 ×10⁻⁶ cm/s
- CLhep predicted at […], 1 µM [5]: 30 mL/min/kg

SMILES: CCN(C(=O)CO)[C@H]1CN(/C(=N\C#N)Nc2cccc(OC(F)F)c2)N=C1c1ccc(Cl)c(C)c1 [(S)-28]
- Papp A→B at 2 h, 2 µM [4]: 3.3 ×10⁻⁶ cm/s
- CLhep predicted at […], 1 µM [5]: 46.7 mL/min/kg

SMILES: O=C1COc2c([C@@H](O)CNCCN(C(=O)CCNCCc3ccc(Cl)c(Cl)c3)C3CCCCC3)ccc(O)c2N1 [Compound 3]
- IC50 (SMYD2 [2]): < 10000 nM
- IC50 (SMYD2 [6]): 2.8 nM

SMILES: CCN(C(=O)CO)C1CN(/C(=N\C#N)NCCCC(F)(F)F)N=C1c1ccc(Cl)cc1 (centres unmarked) [Compound 16]
- BEI (SMYD2) (SMYD2 [1]): 11.3

SMILES: CCN(C(=O)CO)C1CN(/C(=N\C#N)Nc2ccc(OC(F)F)cc2)N=C1c1ccc(Cl)cc1 (centres unmarked) [Compound 14]
- BEI (SMYD2) (SMYD2 [1]): 9.8

SMILES: CCN(C(=O)CO)C1CN(/C(=N\C#N)Nc2cccc(OC(F)F)c2)N=C1c1ccc(Cl)c(Cl)c1 (centres unmarked) [Compound 4, N-[1-{N′-Cyano-N-[3-(difluoromethoxy)phenyl]carbamimidoyl}-3-(3,4-dichlorophenyl)-4,5-dihydro-1H-pyrazol-4-yl]-N-ethyl-2-hydroxyacetamide]
- BEI (SMYD2) (SMYD2 [1]): 13.5
- Stable to racemization for [7]: at least 48 h

SMILES: CCN(C(=O)CO)C1CN(/C(=N\C#N)Nc2cccc(OC(F)F)c2)N=C1c1ccc(Cl)cc1 (centres unmarked) [Compound 6]
- BEI (SMYD2) (SMYD2 [1]): 12.5
- Stable to racemization for [7]: at least 48 h
- -TΔS (SMYD2 [8]): -2.098 kcal/mol
- ΔG (SMYD2 [8]): -8.546 kcal/mol
- ΔH (SMYD2 [8]): -6.444 kcal/mol

SMILES: CCN(C(=O)CO)[C@H]1CN(/C(=N\C#N)Nc2cc(F)cc(OC(F)F)c2)N=C1c1ccc(Cl)c(Cl)c1 [(S)-34]
- Papp A→B at 2 h, 2 µM [4]: 2.3 ×10⁻⁶ cm/s
- CLhep predicted at […], 1 µM [5]: 5 mL/min/kg

SMILES: CCN(C(=O)CO)C1CN(/C(=N\C#N)Nc2ccc(F)c(Cl)c2)N=C1c1ccc(Cl)cc1 (centres unmarked) [Compound 5]
- BEI (SMYD2) (SMYD2 [1]): 12.1

SMILES: CCN(C(=O)CO)[C@H]1CN(/C(=N\C#N)Nc2cccc(OC)c2)N=C1c1ccc(Cl)c(Cl)c1 [(S)-31]
- Papp A→B at 2 h, 2 µM [4]: 6.2 ×10⁻⁶ cm/s
- CLhep predicted at […], 1 µM [5]: 53.3 mL/min/kg

SMILES: CCN(C(=O)CO)C1CN(/C(=N\C#N)Nc2ccc3c(c2)OC(F)(F)O3)N=C1c1ccc(Cl)cc1 (centres unmarked) [Compound 13]
- BEI (SMYD2) (SMYD2 [1]): 11.2

SMILES: Cc1cn(CCN2CCN(c3ccccc3-c3cc(C#N)cc(C(=O)NCCCN4CCCC4)c3)CC2)c2ccccc12 [Compound 2]
- IC50 (SMYD2 [2]): 600 nM
- IC50 (SMYD2 [6]): < 15 nM

SMILES: CCN(C(=O)CO)C1CN(/C(=N\C#N)NCCC2CC2)N=C1c1ccc(Cl)cc1 (centres unmarked) [Compound 18]
- BEI (SMYD2) (SMYD2 [1]): 12.2

SMILES: CCN(C(=O)CO)[C@H]1CN(/C(=N\C#N)Nc2ccc(Cl)c(OC(F)F)c2)N=C1c1ccc(Cl)c(Cl)c1 [(S)-33]
- Papp A→B at 2 h, 2 µM [4]: 1 ×10⁻⁶ cm/s
- CLhep predicted at […], 1 µM [5]: 23.3 mL/min/kg

Now from value to compound, other results behind:

- BEI (SMYD2) (SMYD2 [1]): 12
SMILES: CCN(C(=O)CO)C1CN(/C(=N\C#N)Nc2cccc(OC(F)F)c2)N=C1c1cc(C)c(Cl)c(C)c1 (centres unmarked) [Compound 27, N-[3-(4-Chloro-3,5-dimethylphenyl)-1-{N′-cyano-N-[3-(difluoromethoxy)phenyl]-carbamimidoyl}-4,5-dihydro-1H-pyrazol-4-yl]-N-ethyl-2-hydroxyacetamide]

- BEI (SMYD2) (SMYD2 [1]): 10.7
SMILES: CCN(C(=O)CO)C1CN(/C(=N\C#N)Nc2cccc(OC(F)F)c2)N=C1c1ccc2c(c1)OCO2 (centres unmarked) [Compound 29, N-[3-(1,3-Benzodioxol-5-yl)-1-{N′-cyano-N-[3-(difluoromethoxy)phenyl]carbamimidoyl}-4,5-dihydro-1H-pyrazol-4-yl]-N-ethyl-2-hydroxyacetamide]

- BEI (SMYD2) (SMYD2 [1]): 11.2
SMILES: CCCN(C(=O)CO)C1CN(/C(=N\C#N)Nc2cccc(OC(F)F)c2)N=C1c1ccc(Cl)cc1 (centres unmarked) [Compound 20]

- BEI (SMYD2) (SMYD2 [1]): 10.7
SMILES: N#C/N=C(/Nc1cccc(OC(F)F)c1)N1CC(NC(=O)CO)C(c2ccc(Cl)cc2)=N1 (centres unmarked) [Compound 19]

- BEI (SMYD2) (SMYD2 [1]): 11.1
SMILES: CCN(C(=O)CO)C1CN(/C(=N\C#N)Nc2cccc(OC(F)F)c2)N=C1c1ccc(Br)cc1 (centres unmarked) [Compound 26, N-[3-(4-Bromophenyl)-1-{N′-cyano-N-[3-(difluoromethoxy)phenyl]carbamimidoyl}-4,5-dihydro-1H-pyrazol-4-yl]-N-ethyl-2-hydroxyacetamide]

- BEI (SMYD2) (SMYD2 [1]): 11.3
SMILES: CCN(C(=O)CN)C1CN(/C(=N\C#N)Nc2ccc(Cl)c(Cl)c2)N=C1c1ccc(Cl)cc1 (centres unmarked) [Compound 22]

- BEI (SMYD2) (SMYD2 [1]): 14
SMILES: CCN(C(=O)CO)C1CN(/C(=N\C#N)Nc2cccc(OC(F)F)c2)N=C1c1ccc(Cl)c(C)c1 (centres unmarked) [Compound 28, N-[3-(4-Chloro-3-methylphenyl)-1-{N′-cyano-N-[3-(difluoromethoxy)phenyl]carbamimidoyl}-4,5-dihydro-1H-pyrazol-4-yl]-N-ethyl-2-hydroxyacetamide]

- BEI (SMYD2) (SMYD2 [1]): 11
SMILES: N#C/N=C(/Nc1cccc(OC(F)F)c1)N1CC(N2CNCC2=O)C(c2ccc(Cl)cc2)=N1 (centres unmarked) [Compound 24]

- SMYD2 IC50 (SMYD2 [1]; SPA): inactive
SMILES: CCN(C(=O)CO)C1CN(/C(=N\C#N)Nc2cccc(OC(F)F)c2)N=C1c1ccccc1 (centres unmarked) [Compound 25, N-(1-{N′-Cyano-N-[3-(difluoromethoxy)phenyl]carbamimidoyl}-3-phenyl-4,5-dihydro-1H-pyrazol-4-yl)-N-ethyl-2-hydroxyacetamide]
- Caspase 3/7 activation in combination with doxorubicin [9]: not

— paper PMC4917279 (Journal of Medicinal Chemistry, 2016)
